7 compounds from ChEMBL document CHEMBL1139430, “Synthesis of a natural product-inspired eight-membered ring lactam library via ring-closing metathesis” (Bioorg Med Chem Lett, 2008) can be followed below.

For one assay, the system named is L1210. Kind of assay: Antiproliferative activity against mouse L1210 cells at day 4 by MTS/PMS assay. In kind it is functional, cell-based. Particulars: L1210, 96 h.
Assay [1] deals with HL-60. Kind of assay: Antiproliferative activity against human HL60 cells at 62.5 to 156.25 uM at day 4 by MTS/PMS assay. In kind it is functional.
Assay [2] is described as follows: Antiproliferative activity against mouse Pan02 cells at day 4 by MTS/PMS assay. In kind it is functional, cell-based. To be noted: Pan02, 96 h.
For assay [3], the system named is HL-60. Kind of assay: Antiproliferative activity against human HL60 cells at day 4 by MTS/PMS assay. In kind it is functional, cell-based. Particulars: HL-60, 96 h.

Structures are written as SMILES.

Consider `COc1ccc([C@H]2/C=C\C[C@H](NS(=O)(=O)c3cccc4cccnc34)CC(=O)N2Cc2ccc(F)cc2)cc1`, for which half-maximal inhibition in the assay with L1210 (IC50) required 15.4 µM. Further, the “inhibition (INH)” value with HL-60 [1] is under 50%.
On to `COc1ccc(C(=O)N[C@H]2C/C=C\[C@H](c3ccc(OC)cc3)N(Cc3ccc(F)cc3)C(=O)C2)cc1` (relative stereo), for which the IC50 was determined as 34.9 µM in assay [2], 40.1 µM in the assay on HL-60 [3] and 25.2 µM in the assay on L1210.
Regarding `COc1ccc([C@H]2/C=C\C[C@H](NS(=O)(=O)c3ccc(C)cc3)CC(=O)N2Cc2ccc(F)cc2)cc1` (relative stereo), the IC50 in the assay with L1210 came to 11 µM. In addition, the “inhibition (INH)” value in the assay with HL-60 [1] was under 50%.
On the same counts, the results for `CCCCS(=O)(=O)N[C@H]1C/C=C\[C@H](c2ccc(OC)cc2)N(Cc2ccc(F)cc2)C(=O)C1` (relative stereo) are 37.9 µM and under 50%.
The like results for `COc1ccc([C@H]2/C=C\C[C@H](NS(=O)(=O)c3ccc4ccccc4c3)CC(=O)N2Cc2ccc(F)cc2)cc1` (relative stereo) were, in that order, 8.5 µM and under 50%.
As to `COc1ccc([C@H]2/C=C\C[C@H](NC(=O)C3CCCC3)CC(=O)N2Cc2ccc(F)cc2)cc1` (relative stereo), in the assay on L1210, inhibition was half-maximal at 40.1 µM (IC50). Further, the “inhibition (INH)” value with HL-60 [1] is listed as under 50%.
`COc1ccc([C@H]2/C=C\C[C@H](NC(=O)c3ccccc3)CC(=O)N2Cc2ccc(F)cc2)cc1` (relative stereo): the IC50 in assay [2] is 40.6 µM; with HL-60 [3], 54.7 µM; in the assay with L1210 it was 27.1 µM.

Broadly, the IC50 is the midpoint of a concentration-inhibition curve. Read a high IC50 as a need for much substance.
